Reference: ChEMBL document CHEMBL4387706, “Discovery of Novel Spiroindoline Derivatives as Selective Tankyrase Inhibitors” (J Med Chem, 2019)

Experiments:
Tankyrase 1/2 = biological target: T1, Tankyrase 1/2 (Homo sapiens, UniProt Q9H2K2+O95271); conditions: hek293
T1 sequence (Q9H2K2 whole entry): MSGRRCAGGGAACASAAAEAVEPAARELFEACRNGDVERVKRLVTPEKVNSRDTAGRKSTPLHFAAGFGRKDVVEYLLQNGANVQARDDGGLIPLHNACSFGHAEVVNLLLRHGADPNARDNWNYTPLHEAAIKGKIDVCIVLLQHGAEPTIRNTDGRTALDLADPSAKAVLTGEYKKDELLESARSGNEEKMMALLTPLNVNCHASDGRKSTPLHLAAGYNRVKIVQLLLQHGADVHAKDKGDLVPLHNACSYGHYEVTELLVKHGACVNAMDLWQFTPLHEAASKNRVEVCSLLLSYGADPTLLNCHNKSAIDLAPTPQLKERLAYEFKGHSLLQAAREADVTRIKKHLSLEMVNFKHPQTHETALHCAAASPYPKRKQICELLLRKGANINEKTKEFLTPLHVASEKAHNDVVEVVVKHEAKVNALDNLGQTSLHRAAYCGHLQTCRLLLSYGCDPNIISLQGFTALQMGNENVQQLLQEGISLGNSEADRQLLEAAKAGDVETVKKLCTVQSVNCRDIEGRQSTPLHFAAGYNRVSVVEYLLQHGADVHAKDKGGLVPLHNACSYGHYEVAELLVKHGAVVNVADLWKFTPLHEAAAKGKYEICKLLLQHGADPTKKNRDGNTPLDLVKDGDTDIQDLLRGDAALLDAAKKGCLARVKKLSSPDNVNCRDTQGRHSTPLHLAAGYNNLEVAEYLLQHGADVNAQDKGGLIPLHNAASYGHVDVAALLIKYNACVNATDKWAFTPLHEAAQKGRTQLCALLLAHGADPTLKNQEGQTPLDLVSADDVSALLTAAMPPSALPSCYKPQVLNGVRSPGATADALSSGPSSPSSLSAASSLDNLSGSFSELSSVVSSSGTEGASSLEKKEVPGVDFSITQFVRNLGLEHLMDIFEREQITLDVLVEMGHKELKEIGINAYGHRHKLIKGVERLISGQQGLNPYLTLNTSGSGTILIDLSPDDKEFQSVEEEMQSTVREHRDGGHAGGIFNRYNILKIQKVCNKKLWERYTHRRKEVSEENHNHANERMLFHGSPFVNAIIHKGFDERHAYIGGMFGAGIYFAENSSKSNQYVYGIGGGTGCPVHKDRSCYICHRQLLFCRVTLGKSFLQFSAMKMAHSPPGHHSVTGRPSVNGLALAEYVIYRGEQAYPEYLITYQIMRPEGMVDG
T1 sequence (O95271 whole entry): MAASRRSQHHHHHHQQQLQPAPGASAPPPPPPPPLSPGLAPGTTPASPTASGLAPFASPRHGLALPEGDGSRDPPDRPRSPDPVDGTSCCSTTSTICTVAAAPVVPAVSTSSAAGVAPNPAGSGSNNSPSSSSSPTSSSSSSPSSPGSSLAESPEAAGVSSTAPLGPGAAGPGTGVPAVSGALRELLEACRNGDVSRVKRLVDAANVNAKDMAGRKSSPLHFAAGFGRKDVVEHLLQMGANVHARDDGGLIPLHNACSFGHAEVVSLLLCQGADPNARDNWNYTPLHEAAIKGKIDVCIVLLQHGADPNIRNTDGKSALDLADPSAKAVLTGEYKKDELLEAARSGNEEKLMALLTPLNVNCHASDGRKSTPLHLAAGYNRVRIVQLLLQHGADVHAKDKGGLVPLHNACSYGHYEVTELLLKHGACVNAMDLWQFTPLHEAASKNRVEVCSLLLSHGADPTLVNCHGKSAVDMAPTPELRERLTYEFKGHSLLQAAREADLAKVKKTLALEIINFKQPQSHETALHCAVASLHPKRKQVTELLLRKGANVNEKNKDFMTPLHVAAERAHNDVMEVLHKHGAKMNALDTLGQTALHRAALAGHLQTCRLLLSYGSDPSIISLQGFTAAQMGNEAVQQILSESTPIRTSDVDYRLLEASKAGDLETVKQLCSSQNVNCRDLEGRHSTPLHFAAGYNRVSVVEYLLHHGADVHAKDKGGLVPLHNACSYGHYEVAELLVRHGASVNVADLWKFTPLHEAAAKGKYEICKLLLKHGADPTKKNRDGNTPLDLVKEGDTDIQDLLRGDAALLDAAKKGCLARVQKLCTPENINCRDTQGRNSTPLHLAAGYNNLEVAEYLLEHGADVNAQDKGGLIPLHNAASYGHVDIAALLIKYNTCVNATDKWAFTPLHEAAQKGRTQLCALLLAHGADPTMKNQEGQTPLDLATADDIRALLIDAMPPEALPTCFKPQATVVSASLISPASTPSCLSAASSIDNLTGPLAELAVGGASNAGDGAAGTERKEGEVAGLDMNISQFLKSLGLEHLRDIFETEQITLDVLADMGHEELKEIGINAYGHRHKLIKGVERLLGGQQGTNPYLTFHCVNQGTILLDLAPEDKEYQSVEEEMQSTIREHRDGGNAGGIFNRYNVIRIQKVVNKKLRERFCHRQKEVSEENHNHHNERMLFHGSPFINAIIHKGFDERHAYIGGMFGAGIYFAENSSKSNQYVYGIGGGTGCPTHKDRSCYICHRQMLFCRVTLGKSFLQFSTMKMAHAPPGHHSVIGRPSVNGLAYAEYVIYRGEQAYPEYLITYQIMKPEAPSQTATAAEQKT
Description: Inhibition of TNKS/TNKS2 (unknown origin) expressed in HEK293 cells assessed as reduction in Wnt-signaling measured after 24 hrs by TCF-luciferase reporter gene assay

[1] = biological target: Prostaglandin G/H synthase 1 (Homo sapiens) (UniProt P23219); assay: Inhibition of human recombinant COX1 expressed in baculovirus infected Sf9 cells at 10 uM using arachidonic acid as substrate preincubated for 15 mins followed by substrate addition and measured after 3 mins by ampliflu red dye-based spectrofluorimetric method relative to control
Chain of Prostaglandin G/H synthase 1 (Homo sapiens) (P23219 whole entry): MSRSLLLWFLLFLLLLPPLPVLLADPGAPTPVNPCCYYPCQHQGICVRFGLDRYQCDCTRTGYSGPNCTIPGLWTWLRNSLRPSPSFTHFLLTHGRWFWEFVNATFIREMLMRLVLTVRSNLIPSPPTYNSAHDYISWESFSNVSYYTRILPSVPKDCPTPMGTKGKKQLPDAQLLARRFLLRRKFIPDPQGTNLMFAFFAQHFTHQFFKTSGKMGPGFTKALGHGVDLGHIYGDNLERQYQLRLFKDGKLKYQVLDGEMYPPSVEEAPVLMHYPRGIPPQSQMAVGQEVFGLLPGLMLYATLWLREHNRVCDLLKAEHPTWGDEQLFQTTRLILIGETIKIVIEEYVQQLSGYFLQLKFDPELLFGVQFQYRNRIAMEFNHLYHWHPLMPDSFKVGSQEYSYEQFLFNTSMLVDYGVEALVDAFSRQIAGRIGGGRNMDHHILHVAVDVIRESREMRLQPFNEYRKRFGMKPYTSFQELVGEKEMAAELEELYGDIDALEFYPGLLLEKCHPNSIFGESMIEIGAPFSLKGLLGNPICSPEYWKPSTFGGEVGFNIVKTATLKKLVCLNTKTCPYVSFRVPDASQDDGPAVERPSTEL

[2] = biological target: Cholecystokinin receptor type A (Homo sapiens) (UniProt P32238); assay: Displacement of [125I]CCK8 from full-length recombinant human CCK1 receptor expressed in human 1321N1 cells at 10 uM measured after 3 hrs by scintillation counting method relative to control; assay type: cell-based
Chain of Cholecystokinin receptor type A (Homo sapiens) (P32238 whole entry): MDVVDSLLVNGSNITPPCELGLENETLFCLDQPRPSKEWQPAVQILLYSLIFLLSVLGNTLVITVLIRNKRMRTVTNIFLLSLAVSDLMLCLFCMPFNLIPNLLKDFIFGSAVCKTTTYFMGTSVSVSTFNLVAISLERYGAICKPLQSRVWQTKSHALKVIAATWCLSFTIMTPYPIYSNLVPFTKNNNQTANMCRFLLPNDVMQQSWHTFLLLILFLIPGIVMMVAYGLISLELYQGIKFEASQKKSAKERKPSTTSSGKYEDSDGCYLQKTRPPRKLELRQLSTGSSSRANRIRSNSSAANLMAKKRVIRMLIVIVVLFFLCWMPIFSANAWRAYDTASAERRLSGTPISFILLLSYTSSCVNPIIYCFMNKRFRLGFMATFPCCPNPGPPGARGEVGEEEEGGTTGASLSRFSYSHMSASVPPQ

[3] = biological target: Histamine H1 receptor (Homo sapiens) (UniProt P35367); assay: Displacement of [3H]pyrilamine from full-length recombinant human H1 receptor expressed in CHOK1 cells at 10 uM measured after 180 mins by scintillation counting method relative to control; assay type: cell-based
Chain of Histamine H1 receptor (Homo sapiens) (P35367 whole entry): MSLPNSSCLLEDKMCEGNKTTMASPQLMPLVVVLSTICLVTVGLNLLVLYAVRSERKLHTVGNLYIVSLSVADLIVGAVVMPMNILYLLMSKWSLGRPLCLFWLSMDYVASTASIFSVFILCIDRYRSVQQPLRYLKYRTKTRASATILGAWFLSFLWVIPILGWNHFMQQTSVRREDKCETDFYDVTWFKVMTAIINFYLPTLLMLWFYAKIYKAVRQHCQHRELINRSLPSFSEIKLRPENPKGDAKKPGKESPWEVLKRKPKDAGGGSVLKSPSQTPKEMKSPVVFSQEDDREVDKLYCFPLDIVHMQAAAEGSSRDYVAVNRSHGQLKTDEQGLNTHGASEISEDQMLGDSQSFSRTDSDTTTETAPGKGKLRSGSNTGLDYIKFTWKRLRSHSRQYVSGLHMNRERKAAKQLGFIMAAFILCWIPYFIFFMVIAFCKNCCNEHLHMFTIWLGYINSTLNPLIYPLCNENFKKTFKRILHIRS

[4] = biological target: Sodium-dependent dopamine transporter (Homo sapiens) (UniProt Q01959); assay: Displacement of [125I]RTI-55 from full-length recombinant human DAT receptor expressed in CHOS cells at 10 uM measured after 3 hrs by scintillation counting method relative to control; assay type: cell-based
Chain of Sodium-dependent dopamine transporter (Homo sapiens) (Q01959 whole entry): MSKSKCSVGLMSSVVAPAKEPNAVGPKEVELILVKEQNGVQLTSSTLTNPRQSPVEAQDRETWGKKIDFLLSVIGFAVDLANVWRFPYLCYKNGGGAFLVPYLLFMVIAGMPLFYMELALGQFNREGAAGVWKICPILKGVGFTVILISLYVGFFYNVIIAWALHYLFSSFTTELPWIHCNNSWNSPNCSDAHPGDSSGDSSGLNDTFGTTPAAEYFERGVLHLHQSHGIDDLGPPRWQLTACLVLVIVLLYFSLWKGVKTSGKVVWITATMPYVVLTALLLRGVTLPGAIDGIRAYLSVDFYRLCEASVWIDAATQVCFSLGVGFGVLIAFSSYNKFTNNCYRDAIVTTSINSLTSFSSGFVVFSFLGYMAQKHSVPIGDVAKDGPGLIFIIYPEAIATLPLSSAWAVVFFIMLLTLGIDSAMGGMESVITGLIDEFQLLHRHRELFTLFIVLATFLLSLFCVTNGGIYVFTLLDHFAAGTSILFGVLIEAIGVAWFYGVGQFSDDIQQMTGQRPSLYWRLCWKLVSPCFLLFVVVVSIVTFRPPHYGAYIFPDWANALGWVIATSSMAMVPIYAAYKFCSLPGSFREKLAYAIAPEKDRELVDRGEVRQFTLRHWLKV

[5] = biological target: Muscarinic acetylcholine receptor M2 (Homo sapiens) (UniProt P08172); assay: Displacement of [3H]N-Methylscopolamine from full-length recombinant human M2 receptor expressed in CHOK1 cells at 10 uM measured after 120 mins by scintillation counting method relative to control; assay type: cell-based
Chain of Muscarinic acetylcholine receptor M2 (Homo sapiens) (P08172 whole entry): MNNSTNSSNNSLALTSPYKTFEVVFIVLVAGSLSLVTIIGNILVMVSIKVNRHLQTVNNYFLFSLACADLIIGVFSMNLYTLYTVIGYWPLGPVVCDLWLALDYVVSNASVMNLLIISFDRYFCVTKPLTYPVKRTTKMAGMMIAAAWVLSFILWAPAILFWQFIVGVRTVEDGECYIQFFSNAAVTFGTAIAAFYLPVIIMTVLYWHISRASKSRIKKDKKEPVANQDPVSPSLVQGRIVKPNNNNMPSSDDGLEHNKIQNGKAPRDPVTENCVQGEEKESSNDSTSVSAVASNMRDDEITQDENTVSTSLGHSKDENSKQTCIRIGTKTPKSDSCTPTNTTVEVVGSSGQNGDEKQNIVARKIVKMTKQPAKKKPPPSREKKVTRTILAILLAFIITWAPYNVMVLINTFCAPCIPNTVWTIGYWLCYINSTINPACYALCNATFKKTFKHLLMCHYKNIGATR

[6] = biological target: Sodium-dependent serotonin transporter (Homo sapiens) (UniProt P31645); assay: Displacement of [3H]paroxetine from full-length recombinant human SET receptor expressed in HEK293 cells at 10 uM measured after 60 mins by scintillation counting method relative to control; assay type: cell-based
Chain of Sodium-dependent serotonin transporter (Homo sapiens) (P31645 whole entry, looked up): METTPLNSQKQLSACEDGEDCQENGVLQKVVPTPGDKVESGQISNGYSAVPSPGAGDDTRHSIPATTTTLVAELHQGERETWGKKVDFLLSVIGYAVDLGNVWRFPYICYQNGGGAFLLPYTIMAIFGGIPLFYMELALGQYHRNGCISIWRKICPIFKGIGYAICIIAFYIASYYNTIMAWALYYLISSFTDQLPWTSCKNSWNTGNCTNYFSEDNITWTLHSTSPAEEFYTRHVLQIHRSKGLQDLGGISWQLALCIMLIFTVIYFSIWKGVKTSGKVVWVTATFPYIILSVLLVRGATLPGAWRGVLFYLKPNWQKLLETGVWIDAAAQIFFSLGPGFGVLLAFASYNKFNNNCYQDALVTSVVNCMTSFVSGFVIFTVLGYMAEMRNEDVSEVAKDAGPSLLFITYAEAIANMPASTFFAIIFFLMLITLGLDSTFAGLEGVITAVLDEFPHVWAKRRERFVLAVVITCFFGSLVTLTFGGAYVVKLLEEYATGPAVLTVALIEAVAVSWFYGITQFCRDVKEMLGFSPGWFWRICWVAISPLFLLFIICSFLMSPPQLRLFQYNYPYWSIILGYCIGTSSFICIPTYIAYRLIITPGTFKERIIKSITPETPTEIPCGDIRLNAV

IC50 (Tankyrase 1/2)	Compound	inhibition [1]	inhibition [2]	inhibition [3]	inhibition [4]	inhibition [5]	inhibition [6]
42.9 nM	COc1ccccc1N1CCN(c2nc3c(c(=O)[nH]2)CCCC3)CC1						
	O=c1[nH]c(N2CCC3(CC2)CN(CCO)c2cc(F)cc(F)c23)nc2c1CCCC2	> 20%	> 20%	> 20%	> 20%	> 20%	> 20%
